In patent US6759419B2, “Pyrrolidinone derivatives, their preparation and pharmaceutical composition comprising the same” (Korea Institute of Science and Technology, priority 2001, dated 2004) one finds IC50 data, which are given here for four compounds.

One experiment deals with muscarinic receptors. Nature of the experiment: [3H]-N-methyl-scopolamine ([3H]-NMS) affinity screening test. Also noted: species or system rat. The following applies: inhibition of 50% of specific binding of [3H]-NMS to the receptor; cortex receptor of rats. From the text: [^3H]-N-methyl-scopolamine ([^3H]-NMS) Affinity Screening Test
In order to exclude the interaction between subtypes, human recombinant muscarinic receptor subtypes 1, 2 and 3 expressed in CHO cells (M1, M2 and M3, Biosignal, Canada) were purchased and used as receptor sources. [^3H]-N-methyl-scopolamine (NEN, NET-636) was used as radioisotope labeled ligands, and atropine was used for the measurement of the non-specific binding ability. About 10 kinds of experimental apparatuses including Liquid Scintillation Counter (MicroBeta 1450 plus), Inotech cell harvester (96-well) were used.
In order to determine the effect of each compound on M1 and M2 receptors, the compounds were reacted with the receptors using radioisotope labeled ligands. After the reaction, the excess unbound ligands were removed by filtering with a glass fiber filter. The amount of radioisotopes remaining on the washed filter plate was then measured to quantify the binding reaction between the receptors and the ligands and, from the results, the affinity of the drugs for the receptors was determined.
The freeze-stored receptors at −70° C. were suspended in test buffer solutions and then the screening test (BioRad protein) was carried out to determine the optimum concentration of the proteins. Thereafter, 50 μL of hot-ligands and 10 μL of test drugs were added to 96-well plate and 100 μL of 50 mM TRIS buffer (pH 7.2) containing 10 mM MgCl2 and 1 mM EDTA was added as a test buffer. The final volume of the reaction was […]. The reaction was initiated by adding 100 μL of the diluted receptor suspension, and continued for 60 minutes on a shaking incubator at 27° C. This test for the test drugs was repeated four times. After 60 minutes, the reaction was terminated by adding cold TRIS buffer (0.5 mL, pH 7.4). The excess unbound radioisotopes were removed from the reaction mixture using Inotech cell harvester system. After washing the mixture, the radioactivity detected by the filter mat was measured using Liquid Scintillation Counter. As primary stage of the efficacy screening, the drugs at two concentrations (1 μM, 10 μM) were screened for their affinity for the receptors. As secondary stage, the drugs showing remarkable efficacies were determined at the lower concentrations. Finally, IC50 values were calculated at the gradient of 10 concentrations. […] From the saturation affinity screening test, Kd and Bmax values, and IC50 or Ki values of each test drugs were calculated by observing the non-linear regression using prism (Graphpad software Inc.,USA). […]
(§1) The following table 1 illustrates the affinity of representative compounds of the present invention for muscarinic receptors measured by binding of [^3H]-N-methyl scopolamine ([^3H]-NMS) and [^3H]-oxotremorine ([^3H]-Oxo-M) to cortex receptor of rats. […]

Experiment [1] addresses muscarinic receptors (Oxo-M binding receptor, forebrain synapse membranes). Nature of the experiment: [3H]-oxotremorine-M ([3H]-Oxo-M) affinity screening test. The note with it: inhibition of 50% of specific binding of [3H]-Oxo-M (5 nM) to the receptor; rat brain membranes. The protocol:
[^3H]-oxotremorine-M ([^3H]-Oxo-M) Affinity Screening Test
The experimental principle was the same as [^3H]-NMS affinity screening test. The present experiment was carried out in order to identify the pharmacological functions (an agonist or antagonist) of the compounds showing high affinity in [3H]-NMS affinity screening test. The functions of the compounds may be determined by carrying out both of [^3H]-NMS and [^3H]-Oxo-M (oxotremorine) affinity screening tests to measure their respective IC50 values and calculating ratios (NMS/Oxo-M) of the measured IC50 values. Generally, the compounds are evaluated as muscarinic receptor full agonists when the ratio is greater than 180, as partial agonists when the ratio is from 14 to 130, and as antagonists when the ratio is from 0.2 to 1.9.
Preparation of Brain Membrane
Synapse membranes for binding assay of Oxo-M binding receptor of muscarinic receptors were directly prepared and used in the laboratory as follows: male Sparague-Dawley rats (supplied from Laboratory Animal Center of Korea Research Institute of Chemical Technology, 250 to 300 g) were sacrificed by decapitation. The brain tissues were immediately removed and the forebrain was obtained, which was sectioned into small pieces. After adding 10-fold amount of ice-cooled solution of sucrose (0.32M), the sectioned forebrain was homogenized using Teflon-glass homogenizer (Contorque, Eberbach) at 10 strokes and 500 rpm, centrifuged at 1000 g for 15 minutes, and then the supernatant was again centrifuged at 17000 g for 20 minutes. The pellet was stored at −20° C. and then used.
Before the pellet was used at this assay, it was suspended in 10 mL of […] HEPES buffer (pH 7.4), again centrifuged at 17000 g for 15 minutes and then washed. Finally, the washed membrane was diluted in ice-cooled 20 mM HEPES buffer (pH 7.4) to the final concentration of 1:100 (wet wt/v) and used at this assay. All test samples were tested four times, and 20 mM HEPES buffer (pH 7.4) was used as a buffer for screening test. […] The radioactivity of the receptor binding ligands was detected by Liquid Scintillation Counter (MicroBeta Plus, Wallac, Finland).
The test drugs were diluted sequentially for the required concentrations by dissolving them in dimethylsulfoxide (DMSO) and used in the test. […] From the saturated affinity screening test, Kd and Bmax values, and IC50 or Ki values of respective test drugs were calculated by observing the non-linear regression using prism (Graphpad software Inc., USA). […]
as §1

pIC50: −log10 of the molar value.

For the compound `COC(=O)C1=CCCN(C)C1` [Arecoline, reference compound], the pIC50 on muscarinic receptors is 4.06; in experiment [1], 6.85.

Take `CN1CCC=C(C2=NOC(N3CCCC3=O)C2)C1` (centres unmarked) [Example 15, 1-[3-(1-methyl-1,2,5,6-tetrahydropyridin-3-yl)-4,5-dihydro-isoxazol-5-yl]-pyrrolidin-2-one]: the pIC50 is 5.08 on muscarinic receptors and 6.66 in experiment [1].

On to `CN1CCC=C(C2=NOC(CN3CCCC3=O)C2)C1` (centres unmarked) [Example 18, 1-[3-(1-methyl-1,2,5,6-tetrahydro-pyridin-3-yl)-4,5-dihydro-isoxazol-5-yl-methyl]-pyrrolidin-2-one], for which the results for the pIC50 (on muscarinic receptors; in experiment [1]) were 6.74 and 7.52, respectively.

In the case of `CN1CCC=C(c2cc(CN3CCCC3=O)on2)C1` [Example 23, 1-[3-(1-methyl-1,2,5,6-tetrahydro-pyridin-3-yl)-isoxazol-5-yl-methyl]-pyrrolidin-2-one], the pIC50 on muscarinic receptors is 5.83; in experiment [1], 6.43.
